Experimental data from article PMC6047346 (Journal of medicinal chemistry, 2017).
Like-named read-outs stand apart in the source and are kept apart here.

Assays:
U937 cells [1] = conditions: cited from earlier work
SphK1 = conditions: both the rat and human enzymes; cited from earlier work
rats = conditions: cited from earlier work
human SphK1 = human SphK1 (Homo sapiens, UniProt Q9NYA1); assay: Sphingosine kinase assay, recombinant human SphK1, γ-[32P]ATP; conditions: for remaining activity at 0.3 µM: read-out: hSphK1 (SphK activity, % control, no inhibitor added)
Chain of human SphK1 (Q9NYA1 whole entry): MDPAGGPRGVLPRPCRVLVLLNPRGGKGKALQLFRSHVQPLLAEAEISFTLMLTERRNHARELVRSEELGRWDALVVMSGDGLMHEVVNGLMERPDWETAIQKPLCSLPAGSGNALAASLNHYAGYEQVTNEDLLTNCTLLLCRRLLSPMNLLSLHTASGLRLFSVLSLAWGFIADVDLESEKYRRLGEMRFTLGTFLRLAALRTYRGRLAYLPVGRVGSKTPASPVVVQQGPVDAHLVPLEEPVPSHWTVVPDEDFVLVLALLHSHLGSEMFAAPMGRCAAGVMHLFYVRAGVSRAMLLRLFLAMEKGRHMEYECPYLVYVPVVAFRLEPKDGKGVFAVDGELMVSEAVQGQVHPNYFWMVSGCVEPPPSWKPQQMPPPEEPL

human SphK2 = biological target: T1, human SphK2 (Homo sapiens, UniProt Q9NRA0); assay: Sphingosine kinase assay, recombinant human SphK2, γ-[32P]ATP; conditions: for inhibition at 0.3 µM: read-out: SphK2 inhibition (decrease of activity); for hSphK2 (SphK activity, % control, no inhibitor added): compounds at 0.3 μM, triplicate, 10 μM sphingosine, 250 μM γ-[32P]ATP
T1 sequence (Q9NRA0 1-654): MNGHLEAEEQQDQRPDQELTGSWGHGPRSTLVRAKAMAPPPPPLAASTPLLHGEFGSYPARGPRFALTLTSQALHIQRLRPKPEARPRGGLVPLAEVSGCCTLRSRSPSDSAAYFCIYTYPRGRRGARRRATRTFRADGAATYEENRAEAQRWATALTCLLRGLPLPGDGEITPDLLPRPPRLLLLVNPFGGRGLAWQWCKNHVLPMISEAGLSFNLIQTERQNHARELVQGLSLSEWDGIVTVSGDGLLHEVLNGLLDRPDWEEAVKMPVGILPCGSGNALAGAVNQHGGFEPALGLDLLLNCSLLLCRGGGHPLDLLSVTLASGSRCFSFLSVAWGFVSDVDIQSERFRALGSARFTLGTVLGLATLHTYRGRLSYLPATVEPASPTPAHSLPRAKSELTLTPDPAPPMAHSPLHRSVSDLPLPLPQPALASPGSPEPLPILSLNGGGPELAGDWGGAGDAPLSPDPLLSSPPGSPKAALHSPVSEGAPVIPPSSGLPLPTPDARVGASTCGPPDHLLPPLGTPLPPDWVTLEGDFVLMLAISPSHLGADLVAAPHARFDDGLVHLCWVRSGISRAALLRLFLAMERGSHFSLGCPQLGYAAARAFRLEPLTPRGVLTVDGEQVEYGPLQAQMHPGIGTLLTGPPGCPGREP

U937 cells [2] = assay: Sphingolipid; format: cell-based, human; conditions: 2 h incubation, LC-MS-MS
C57BL/6 mice = assay: Blood S1P levels in mice after ip dosing, LC-MS-MS; format: in vivo; conditions: single 10 mg/kg ip dose
[3] = read-out: hSphK2 (SphK activity, % control, no inhibitor added)
[4] = read-out: SphK2 activity remaining

CCCCCCCCc1ccc(-c2noc(C[C@@H]3CCCN3C(=N)N)n2)cc1 [Compound 3]
S1P levels in cultured human U937 leukemia cells (U937 cells [1]): reduce S1P levels | selectivity for SphK1 over SphK2 (SphK1): > 100 fold | S1P levels in the bloodstream of rats (rats): reduce S1P levels

Cl.N=C(N)N1CCC[C@H]1Cc1nc(-c2ccc(Nc3nc(-c4ccccc4)cs3)cc2)no1 [Compound 20a, (S)-amino(2-((3-(4-((4-phenylthiazol-2-yl)amino)phenyl)-1,2,4-oxadiazol-5-yl)methyl)pyrrolidin-1-yl)methaniminium chloride]
SphK1 inhibition, in words (human SphK1; screen at 0.3 μM): poor inhibition | SphK2 inhibition, in words (human SphK2; screen at 0.3 μM): poor inhibition

N=C(N)N1CCC[C@H]1Cc1nc(-c2ccc(Nc3nc(-c4ccncc4)cs3)cc2)no1.O=C(O)C(F)(F)F [Compound 20b, (S)-amino(2-((3-(4-((4-(pyridin-4-yl)thiazol-2-yl)amino)phenyl)-1,2,4-oxadiazol-5-yl)methyl)pyrrolidin-1-yl)methaniminium trifluoroacetate]
SphK1 inhibition, in words (human SphK1; screen at 0.3 μM): inactive | SphK2 inhibition, in words (human SphK2; screen at 0.3 μM): inactive

Cl.N=C(N)N1CCC[C@H]1Cc1nc(-c2ccc(Nc3nc(-c4cc(C(F)(F)F)cc(C(F)(F)F)c4)cs3)cc2)no1 [Compound 20bb, (S)-amino(2-((3-(4-((4-(3,5-bis(trifluoromethyl)phenyl)thiazol-2-yl)amino)phenyl)-1,2,4-oxadiazol-5-yl)methyl)pyrrolidin-1-yl)methaniminium chloride]
SphK1 inhibition, in words (human SphK1; concentrations up to 1 μM): inactive

Cl.N=C(N)N1CCC[C@H]1Cc1nc(-c2ccc(Nc3nc(-c4cccnc4)cs3)cc2)no1 [Compound 20c, (S)-amino(2-((3-(4-((4-(pyridin-3-yl)thiazol-2-yl)amino)phenyl)-1,2,4-oxadiazol-5-yl)methyl)pyrrolidin-1-yl)methaniminium chloride]
SphK1 inhibition, in words (human SphK1; screen at 0.3 μM): inactive | SphK2 inhibition, in words (human SphK2; screen at 0.3 μM): inactive

Cl.N=C(N)N1CCC[C@H]1Cc1nc(-c2ccc(Nc3nc(-c4ccc(-c5ccccc5)cc4)cs3)cc2)no1 [Compound 20dd, (S)-(2-((3-(4-((4-([1,1′-biphenyl]-4-yl)thiazol-2-yl)amino)phenyl)-1,2,4-oxadiazol-5-yl)methyl)pyrrolidin-1-yl)(amino)methaniminium chloride]
S1P levels in U937 cells (U937 cells [2]): concentration-dependent decrease | Sph (sphingosine) levels in U937 cells (U937 cells [2]): remained constant | blood S1P levels (C57BL/6 mice; after 24 hours): returned to basal levels | blood S1P levels (C57BL/6 mice; two and six hour time points): increased

Cl.N=C(N)N1CCC[C@H]1Cc1nc(-c2ccc(Nc3nc(-c4cccc(C(F)(F)F)c4)cs3)cc2)no1 [Compound 20l, (S)-amino(2-((3-(4-((4-(3-(trifluoromethyl)phenyl)thiazol-2-yl)amino)phenyl)-1,2,4-oxadiazol-5-yl)methyl)pyrrolidin-1-yl)methaniminium chloride]
S1P levels in U937 cells (U937 cells [2]): concentration-dependent decrease | Sph (sphingosine) levels in U937 cells (U937 cells [2]): remained constant

Cc1ccc(-c2csc(Nc3ccc(-c4noc(C[C@@H]5CCCN5C(=N)N)n4)cc3)n2)cc1 [Compound 20n, (S)-amino(2-((3-(4-((4-(p-tolyl)thiazol-2-yl)amino)phenyl)-1,2,4-oxadiazol-5-yl)methyl)pyrrolidin-1-yl)methaniminium chloride]
remaining activity at 0.3 µM (human SphK1): 89 ± 0.7% | inhibition at 0.3 µM (human SphK2): < 30% | remaining activity at 0.3 µM (human SphK2; [3]): 44 ± 12%

COc1ccc(-c2csc(Nc3ccc(-c4noc(C[C@@H]5CCCN5C(=N)N)n4)cc3)n2)cc1 [Compound 20o, (S)-amino(2-((3-(4-((4-(4-methoxyphenyl)thiazol-2-yl)amino)phenyl)-1,2,4-oxadiazol-5-yl)methyl)pyrrolidin-1-yl)methaniminium chloride]
remaining activity at 0.3 µM (human SphK1): 58 ± 4% | inhibition at 0.3 µM (human SphK2): < 30% | remaining activity at 0.3 µM (human SphK2; [3]): 82 ± 6%

CCOc1ccc(-c2csc(Nc3ccc(-c4noc(C[C@@H]5CCCN5C(=N)N)n4)cc3)n2)cc1 [Compound 20p, (S)-amino(2-((3-(4-((4-(4-ethoxyphenyl)thiazol-2-yl)amino)phenyl)-1,2,4-oxadiazol-5-yl)methyl)pyrrolidin-1-yl)methaniminium chloride]
remaining activity at 0.3 µM (human SphK1): 75 ± 0.2% | inhibition at 0.3 µM (human SphK2): < 30% | remaining activity at 0.3 µM (human SphK2; [3]): 80 ± 7%

N=C(N)N1CCC[C@H]1Cc1nc(-c2ccc(Nc3nc(-c4ccc(OC(F)(F)F)cc4)cs3)cc2)no1 [Compound 20r, (S)-amino(2-((3-(4-((4-(4-(trifluoromethoxy)phenyl)thiazol-2-yl)amino)phenyl)-1,2,4-oxadiazol-5-yl)methyl)pyrrolidin-1-yl)methaniminium chloride]
remaining activity at 0.3 µM (human SphK2; [4]): ~40% | remaining activity at 0.3 µM (human SphK2; [3]): 84 ± 2%

N=C(N)N1CCC[C@H]1Cc1nc(-c2ccc(Nc3nc(-c4cccc(OC(F)(F)F)c4)cs3)cc2)no1 [Compound 20s, (S)-amino(2-((3-(4-((4-(3-(trifluoromethoxy)phenyl)thiazol-2-yl)amino)phenyl)-1,2,4-oxadiazol-5-yl)methyl)pyrrolidin-1-yl)methaniminium chloride]
remaining activity at 0.3 µM (human SphK1): 90 ± 1% | remaining activity at 0.3 µM (human SphK2; [3]): 100 ± 2%

COc1ccc(-c2csc(Nc3ccc(-c4noc(C[C@@H]5CCCN5C(=N)N)n4)cc3)n2)cc1Cl.Cl [Compound 20v, (S)-amino(2-((3-(4-((4-(3-chloro-4-methoxyphenyl)thiazol-2-yl)amino)phenyl)-1,2,4-oxadiazol-5-yl)methyl)pyrrolidin-1-yl)methaniminium chloride]
SphK1 inhibition, in words (human SphK1; screen at 0.3 μM): no SphK1 inhibition | remaining activity at 0.3 µM (human SphK2; [4]): ~70%

Cl.N=C(N)N1CCC[C@H]1Cc1nc(-c2ccc(Nc3nc(-c4ccc(-c5ccc(C(F)(F)F)cc5)cc4)cs3)cc2)no1 [Compound 23c, (S)-amino(2-((3-(4-((4-(4′-(trifluoromethyl)-[1,1′-biphenyl]-4-yl)thiazol-2-yl)amino)phenyl)-1,2,4-oxadiazol-5-yl)methyl)pyrrolidin-1-yl)methaniminium chloride]
SphK1 inhibition, in words (human SphK1; screen at 0.3 μM): inactive | SphK2 inhibition, in words (human SphK2; screen at 0.3 μM): inactive

Cl.N=C(N)N1CCC[C@H]1Cc1nc(-c2ccc(Nc3nc(-c4ccc(-c5cccc(C(F)(F)F)c5)cc4)cs3)cc2)no1 [Compound 23d, (S)-amino(2-((3-(4-((4-(3′-(trifluoromethyl)-[1,1′-biphenyl]-4-yl)thiazol-2-yl)amino)phenyl)-1,2,4-oxadiazol-5-yl)methyl)pyrrolidin-1-yl)methaniminium chloride]
SphK1 inhibition, in words (human SphK1; screen at 0.3 μM): inactive | SphK2 inhibition, in words (human SphK2; screen at 0.3 μM): inactive

N=C(N)N1CCC[C@H]1Cc1nc(-c2ccc(Oc3nc(-c4ccc(C(F)(F)F)cc4)cs3)cc2)no1 [Compound 31, (S)-amino(2-((3-(4-((4-(4-(trifluoromethyl)phenyl)thiazol-2-yl)oxy)phenyl)-1,2,4-oxadiazol-5-yl)methyl)pyrrolidin-1-yl)methaniminium chloride]
inhibition at 0.3 µM (human SphK1; read-out: SphK1 inhibition (decrease of activity)): ~45% | inhibition at 0.3 µM (human SphK2): ~45%

(S)-(2-((3-(4-((4-([1,1′-biphenyl]-4-yl)thiazol-2-yl)amino)phenyl)-1,2,4-oxadiazol-5-yl)methyl)pyrrolidin-1-yl)(amino)methaniminium chloride [Compound 34]
hSphK2 (SphK activity, % control, no inhibitor added) (human SphK2): 100 ±5 % control | SphK2 inhibition, in words (human SphK2; concentrations up to 1 μM): completely inactive

(S)-amino(2-((3-(4-((4-(benzofuran-2-yl)thiazol-2-yl)amino)phenyl)-1,2,4-oxadiazol-5-yl)methyl)pyrrolidin-1-yl)methaniminium chloride [Compound 20ee]
hSphK2 (SphK activity, % control, no inhibitor added) (human SphK2): 67 ±5 % control
